Consider 77 molecules from PubChem BioAssay AID1208 (EPA DSSTox, 2008).

The structures appear in SMILES notation. The source made the active and inactive calls.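 How the source made its calls: active means at least one rat sex group has a carcinogenic potency value and tumor site recorded; inconclusive means only rat studies were judged inadequate by the national testing program; inactive means no potency or tumor site, with negative rat experiments.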 Where a SMILES comes first, the peptide text is derived from it.

In the data set the test system is rat chronic carcinogenicity bioassay, TD50. In words: DSSTox (CPDBAS) Carcinogenic Potency Database Summary Rat Bioassay Results. Conditions: for Potency: hits give low values; for outcome: TD50_Rat_Note: no positive results. A digest of the protocol: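 The activity score maps log10(1/TD50_Rat_mmol) linearly onto 1–100; actives without a computed TD50, such as mixtures, receive 50. Source data are chronic rat carcinogenicity tests, using the most positive experiment for each sex.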

[1] abbreviates: TargetSites_Rat_Female: no positive results.
[2] abbreviates: TD50_Rat_Note: TD50 is harmonic mean of more than one positive test, TargetSites_Rat_Female: liver.
Setting [3] is: TargetSites_Rat_BothSexes: no positive results.
[4] abbreviates: TD50_Rat_Note: TD50 is harmonic mean of more than one positive test, TargetSites_Rat_Female: stomach.
Where [5] appears, read: TD50_Rat_Note: TD50 is harmonic mean of more than one positive test, TargetSites_Rat_Female: nasal cavity.

As to `C#C[C@]1(OC(C)=O)CC[C@H]2[C@@H]3CCC4=CC(=O)CC[C@@H]4[C@H]3CC[C@@]21C`, the Potency (TD50_Rat_Note: TD50_Rat_mmol was not calculated for this mixture, but Activiity Score is assigned value of 50 to indicate active, TargetSites_Rat_BothSexes: liver, mammary gland, pituitary gland, uterus) was 1.94 mg/kg/day.

For `CCCCN(CCCCO)N=O`, the Potency (TD50_Rat_Note: TD50 is harmonic mean of more than one positive test, harmonic mean of TD50 includes a value for upper 99% confidence li, TargetSites_Rat_Female: urinary bladder) is 0.457 mg/kg/day.

For the molecule `C[C@]12CCC(=O)C=C1CC[C@@H]1[C@@H]2[C@@H](O)C[C@@]2(C)[C@H]1CC[C@]2(O)C(=O)CO`, the outcome under setting [1] was “inactive; no positive results”.

For `CCCCCN(CCCCC)N=O`, the Potency under setting [2] was 4.03 mg/kg/day.

Take `O=S(=O)(O)CCS`: the outcome is “inactive; no positive results”.

Take `COC(=O)[C@H]1[C@H]2C[C@@H]3c4[nH]c5ccccc5c4CCN3C[C@H]2C[C@@H](OC(=O)c2cc(OC)c(OC)c(OC)c2)[C@@H]1OC`: under setting [3], the outcome was inactive.

Turning to `Nc1ccc(O)c([N+](=O)[O-])c1`, under setting [1], the Potency was 309 mg/kg/day.

As to `CN1CCC[C@H]1c1cccnc1`, the outcome under setting [1] is “inactive; no positive results”.

As to `Nc1ccc(Sc2ccc(N)cc2)cc1`, the Potency (TD50_Rat_Note: TD50 is harmonic mean of more than one positive test, TargetSites_Rat_Female: ear Zymbals gland, thyroid gland, uterus) is 3.71 mg/kg/day.

As to `IC(I)I`, the outcome under setting [1] was “inactive; no positive results”.

In the case of `CCCCNC(=O)N(CCCC)N=O`, for the setting “TargetSites_Rat_Female: hematopoietic system, mammary gland”, the Potency is 4.28 mg/kg/day.

Take `CCC[CH2][Sn]([CH2]CCC)([CH2]CCC)[O][Sn]([CH2]CCC)([CH2]CCC)[CH2]CCC`: the outcome under setting [1] was “inactive; no positive results”.

Take `CC1CN(N=O)CC(C)N1C` (stereo not drawn): the Potency (TargetSites_Rat_Female: nasal cavity) is 0.151 mg/kg/day.

For `N#CS`, under setting [1], the outcome was “inactive; no positive results”.

Consider `CCOc1ccc(NC(N)=O)cc1`, for which the Potency (TargetSites_Rat_BothSexes: liver) is 537 mg/kg/day.

`Nc1cccc(N)c1`: the outcome is “inactive; no positive results”.

For `Cc1ccc(C)c(N)c1`, the Potency was 152 mg/kg/day.

Consider `CC(=O)Nc1ccc(-c2ccccc2)cc1O`, for which the outcome under setting [1] was inactive.

As to `O=[N+]([O-])c1cc([As](=O)(O)O)ccc1O`, under setting [1], the outcome is “inactive; no positive results”.

As to `CC(O)CN(CC(C)O)N=O` (stereo not drawn), the Potency (TD50_Rat_Note: TD50 is harmonic mean of more than one positive test, TargetSites_Rat_Female: esophagus, nasal cavity) is 0.846 mg/kg/day.

For `O=P(OC(CCl)CCl)(OC(CCl)CCl)OC(CCl)CCl`, the Potency (TD50_Rat_Note: TD50 is harmonic mean of more than one positive test, TargetSites_Rat_Female: kidney, liver) is 46.4 mg/kg/day.

For `CNC(=O)CSP(=S)(OC)OC`, under setting [1], the outcome is “inactive; no positive results”.

For the molecule `CCOCCc1c(-c2ccccc2)nc(N)n2ncnc12`, the Potency (TD50_Rat_Note: TD50 is harmonic mean of more than one positive test, TargetSites_Rat_Female: liver, mammary gland) is 548 mg/kg/day.

`C[C@]12C/C(=C/O)C(=O)C[C@@H]1CC[C@@H]1[C@@H]2CC[C@@]2(C)[C@H]1CC[C@]2(C)O`: the Potency (TargetSites_Rat_Female: liver, lung, skin) was 66.9 mg/kg/day.

Consider `COc1cc2c(cc1N)oc1ccccc12`, for which the Potency (TD50_Rat_Note: TD50 is harmonic mean of more than one positive test, harmonic mean of TD50 includes a value for upper 99% confidence li, TargetSites_Rat_Female: ear Zymbals gland, mammary gland, urinary bladder) is 29 mg/kg/day.

As to `Cl`, the outcome is “inactive; no positive results”. The outcome under setting [1] was “inactive; no positive results”.

Take `COc1cc(S(C)=O)ccc1-c1nc2ccncc2[nH]1` (stereo not drawn): the Potency (TD50_Rat_Note: TD50 is harmonic mean of more than one positive test, TargetSites_Rat_Female: adrenal gland) was 70.5 mg/kg/day.

`COC(=O)[C@H](Cc1ccccc1)NC(=O)[C@@H](N)CC(=O)O` (H-Asp-Phe-OMe): the outcome under setting [1] was “inactive; no positive results”.

Take `CCc1cccc2c3c([nH]c12)C(CC)(CC(=O)O)OCC3` (stereo not drawn): the outcome under setting [1] was “inactive; no positive results”.

As to `NC(=S)C(N)=S`, under setting [1], the result was inactive.

Regarding `O=C(O)c1ccc(O)c(O)c1`, the outcome was “inactive; no positive results”.

On to `Clc1ccc2c(c1)C(c1ccccc1)=NCc1nncn1-2`, for which the outcome under setting [1] was “inactive; no positive results”.

Regarding `COc1cc(NC(=O)C(N=Nc2ccc(-c3ccc(N=NC(C(C)=O)C(=O)Nc4cc(OC)c(Cl)cc4OC)c(Cl)c3)cc2Cl)C(C)=O)c(OC)cc1Cl` (stereo not drawn), the result under setting [3] was inactive.

On to `CC(C)CON=O`, for which, for the setting “TD50_Rat_Note: TD50 is harmonic mean of more than one positive test, TargetSites_Rat_Female: lung”, the Potency is 54.1 mg/kg/day.

In the case of `c1ccc2c(c1)cc1ccc3cccc4ccc2c1c34`, the Potency (TargetSites_Rat_BothSexes: stomach) was 0.956 mg/kg/day.

As to `Cc1ccc2c(c1N)C(=O)c1ccccc1C2=O`, the Potency under setting [2] is 59.2 mg/kg/day.

Regarding `Clc1cccc(-c2cccc(Cl)c2)c1`, the Potency (TD50_Rat_Note: no positive results are statistically significant, TD50_Rat_mmol was not calculated for this mixture, but Activiity Scor) is 157 mg/kg/day.

Take `CC[C@]1(O)CC2CN(CCc3c([nH]c4ccccc34)[C@@](C(=O)OC)(c3cc4c(cc3OC)N(C)[C@H]3[C@@](O)(C(=O)OC)[C@H](OC(C)=O)[C@]5(CC)C=CCN6CC[C@]43[C@@H]65)C2)C1` (stereo partly drawn): the outcome is “inactive; no positive results”.

On to `O=C(O)CCCc1ccc(N(CCCl)CCCl)cc1`, for which the Potency (TD50_Rat_Note: TD50 is harmonic mean of more than one positive test, TargetSites_Rat_Female: ear Zymbals gland, mammary gland, nervous system) was 0.896 mg/kg/day.

For the molecule `OCc1ccco1`, under setting [1], the Potency is 9.6 mg/kg/day.

In the case of `OCC(CO)N[C@H]1C[C@](O)(CO)[C@@H](O)[C@H](O)[C@H]1O`, the outcome under setting [1] was “inactive; no positive results”.

`CN(C)CCOc1ccc(/C(=C(/CCCl)c2ccccc2)c2ccccc2)cc1`: under setting [1], the outcome was “inactive; no positive results”.

Take `CC(=O)OC(OC(C)=O)c1ccc([N+](=O)[O-])o1`: under setting [1], the outcome was inactive.

For `COc1ccc(N)cc1`, under setting [1], the outcome is “inactive; no positive results”.

As for `Cc1ccc(N)cc1`, the outcome was “inactive; no positive results”.

For `CCOC(=O)CC(SP(=O)(OC)OC)C(=O)OCC` (stereo not drawn), the outcome under setting [1] was “inactive; no positive results”.

Consider `C=C(Cl)CSC(=S)N(CC)CC`, for which, for the setting “TD50_Rat_Note: TD50 is harmonic mean of more than one positive test, TargetSites_Rat_Female: mammary gland”, the Potency was 26.1 mg/kg/day.

As for `Oc1cc2c(cc1O)[C@H]1c3ccc(O)c(O)c3OC[C@@]1(O)C2`, under “TargetSites_Rat_BothSexes: hematopoietic system”, the Potency was 1000 mg/kg/day.

In the case of `Cc1cc(Cc2ccc(N)c(C)c2)ccc1N`, the Potency under setting [2] is 7.38 mg/kg/day.

Turning to `COc1cc(OC)c2c3c(c(=O)oc2c1)CCC3=O`, the outcome is “inactive; no positive results”.

As to `O=NN1CCOC1=O`, the Potency (TD50_Rat_Note: TD50 is harmonic mean of more than one positive test, harmonic mean of TD50 includes a value for upper 99% confidence li) is 0.385 mg/kg/day.

With `CC(=O)c1ccc(S(=O)(=O)NC(=O)NC2CCCCC2)cc1`, the outcome under setting [1] is “inactive; no positive results”.

With `O=NN(CCCC(F)(F)F)CCCC(F)(F)F`, the Potency (TD50_Rat_Note: TD50 is harmonic mean of more than one positive test, TargetSites_Rat_Female: liver, lung) was 0.748 mg/kg/day.

Take `ClCC1CO1` (stereo not drawn): the Potency under setting [4] is 2.96 mg/kg/day.

For `CN(N=O)C(N)=O`, the Potency was 0.0927 mg/kg/day.

`CC1=CC(=O)CC(C)(C)C1`: the Potency under setting [1] is 1210 mg/kg/day.

Turning to `NN`, where the note is “TD50_Rat_Note: TD50 is harmonic mean of more than one positive test, greater than ten-fold variation among TD50 values for positive res, TargetSites_Rat_Female: liver, lung, nasal cavity”, the Potency is 0.613 mg/kg/day.

Turning to `C[C@]12CC[C@@H]3c4ccc(OC(=O)Cc5ccc(N(CCCl)CCCl)cc5)cc4CC[C@H]3[C@@H]1CC[C@@H]2OC(=O)Cc1ccc(N(CCCl)CCCl)cc1`, the outcome under setting [1] is “inactive; no positive results”.

Consider `O=[N+]([O-])c1cc(N(CCO)CCO)ccc1NCCO`, for which the outcome under setting [1] was “inactive; no positive results”.

As to `Nc1cc(Cl)c(-c2cc(Cl)c(N)cc2Cl)cc1Cl`, under setting [1], the outcome was “inactive; no positive results”.

`O=C1NC(=O)C(c2ccccc2)(c2ccccc2)N1`: under setting [1], the outcome was “inactive; no positive results”.

In the case of `CCOc1nc2cccc(C(=O)OC(C)OC(=O)OC3CCCCC3)c2n1Cc1ccc(-c2ccccc2-c2nn[nH]n2)cc1` (stereo not drawn), the outcome under setting [1] was “inactive; no positive results”.

Take `COc1ccc(C(=O)Nc2c(Cl)cncc2Cl)cc1OC1CCCC1`: the Potency under setting [5] is 1.54 mg/kg/day.

Take `CCNNC(=O)[C@@H]1[C@H](c2cc(OC)c(OC)c(OC)c2)c2cc3c(cc2[C@H](O)[C@H]1CO)OCO3`: the outcome was “inactive; no positive results”.

In the case of `CC1CN(N=O)C(=O)NC1=O` (stereo not drawn), under setting [1], the outcome was “inactive; no positive results”.

Take `O=C(c1ccccc1)C(O)c1ccccc1` (stereo not drawn): under setting [1], the outcome is “inactive; no positive results”.

As to `NC(Cc1ccc(O)c(O)c1)C(=O)O` (stereo not drawn), the outcome is “inactive; no positive results”.

For `C[C@](N)(Cc1ccc(O)c(O)c1)C(=O)O`, the outcome under setting [1] is “inactive; no positive results”.

As to `O=C(O)CCl`, under setting [1], the outcome was “inactive; no positive results”.

In the case of `COc1ccc(O)cc1`, the Potency under setting [4] was 658 mg/kg/day.

Turning to `O=[As](O)(O)O`, the outcome under setting [3] was inactive.

As for `Nc1ccc(N)cc1`, the outcome under setting [1] is “inactive; no positive results”.

As for `NC(=O)OCC(COC(N)=O)c1ccccc1`, the Potency under setting [2] is 1090 mg/kg/day.

Turning to `CC[N+]([O-])=NC`, the Potency was 0.0189 mg/kg/day.

On to `c1ccc(OCC2CO2)cc1` (stereo not drawn), for which the Potency under setting [5] is 44 mg/kg/day.

Consider `COc1ccc2c3c1O[C@H]1[C@@H](O)C=C[C@H]4[C@@H](C2)N(C)CC[C@@]341`, for which the outcome under setting [1] is “inactive; no positive results”.

Turning to `O=C(O)C(Cl)(Cl)Cl`, the outcome was “inactive; no positive results”.
